According to patent publication US8932597B2 (priority 2008, dated 2015):

Tested on: anti-M2 human monoclonal antibody Z3G1
Type: binding

Substance | Signal (peptides that bind to Z3G1) | Signal (peptides that show specific binding to Z3G1)
1445 (CVETPIRNEWLLTEVETPICLTEVETPIR; epitope peptide; MISC_FEATURE (1)..(1): C is an attachment site for a CLIP; MISC_FEATURE (10)..(10): W is an attachment site for a CLIP; MISC_FEATURE (11)..(11): L is an attachment site for a CLIP; MISC_FEATURE (29)..(29): R is an attachment site for a CLIP) [compound 1445] | 2280 | 
1295 (MSLLWEVETPIRNEWGCRCN; epitope peptide) [compound 1295] | 2531 | 
1260 (MNLLTEVETPIRNEWGCRCN; epitope peptide) [compound 1260] | 2733 | 
1557 (CLCTCVGSLLCEV; epitope peptide) [compound 1557] |  | 2246
1351 (MSLLCEVGMSCLCEC; epitope peptide) [compound 1351] | 2492 | 
1266 (MYLLTEVETPIRNEWGCRCN; epitope peptide) [compound 1266] | 1960 | 
1340 (MSCLTEVGMSLLCEV; epitope peptide) [compound 1340] | 2341 | 
1589 (SLLVEVETPIRNEWGCRCNDSSD; epitope peptide) [compound 1589] |  | 1932
1440 (CTEVETPIRNSLLTEVETPCLTEVETPIR; epitope peptide; MISC_FEATURE (1)..(1): C is an attachment site for a CLIP; MISC_FEATURE (10)..(10): N is an attachment site for a CLIP; MISC_FEATURE (11)..(11): S is an attachment site for a CLIP; MISC_FEATURE (29)..(29): R is an attachment site for a CLIP) [compound 1440] | 2705 | 
1330 (MSLLCEVECPIRNE; epitope peptide) [compound 1330] | 2606 | 
1343 (CSCLCEVGMSLLCEV; epitope peptide) [compound 1343] | 1945 | 
1329 (MSLLCEVETCIRNE; epitope peptide) [compound 1329] | 2589 | 
1474 (CVETPIRNEWSLLTEVETPCEVETPIRNE; epitope peptide; MISC_FEATURE (1)..(1): C is an attachment site for a CLIP; MISC_FEATURE (10)..(10): W is an attachment site for a CLIP; MISC_FEATURE (11)..(11): S is an attachment site for a CLIP; MISC_FEATURE (29)..(29): E is an attachment site for a CLIP) [compound 1474] | 1986 | 
1586 (SLLLEVETPIRNEWGCRCNDSSD; epitope peptide) [compound 1586] |  | 2344
1293 (MSLLSEVETPIRNEWGCRCN; epitope peptide) [compound 1293] | 2790 | 
1459 (CTEVETPIRNLLTEVETPICTEVETPIRN; epitope peptide; MISC_FEATURE (1)..(1): C is an attachment site for a CLIP; MISC_FEATURE (10)..(10): N is an attachment site for a CLIP; MISC_FEATURE (11)..(11): L is an attachment site for a CLIP; MISC_FEATURE (29)..(29): N is an attachment site for a CLIP) [compound 1459] | 1749 | 
1311 (MSLLTEVYTPIRNEWGCRCN; epitope peptide) [compound 1311] | 2181 | 
1339 (MCLLTEVGMSLLCEV; epitope peptide) [compound 1339] | 2234 | 
1371 (SLLCEVETPIRNE; epitope peptide) [compound 1371] | 2511 | 
1312 (MSLLTEVEWPIRNEWGCRCN; epitope peptide) [compound 1312] | 2541 | 
